The record followed here is patent US20230365624A1, “NOVEL ANGIOTENSIN I-CONVERTING ENZYME (ACE) INHIBITORY PEPTIDES” (Thai Union Group Public Company Limited, priority 2020, published 2023).

This data set relates to GI enzymes (pepsin and pancreatin). In words: In vitro gastrointestinal (GI) digestion of synthetic peptides, with ACE inhibitory activity and α-amino group content before and after. The data set is classed as in vitro ADME. The conditions noted are these: pepsin pH 2.0, 37° C., 1 h, then pancreatin pH 7.5, 37° C., 2 h (FIG. 6). Here is the method: It is necessary for ACE inhibitory peptides to retain its activity in GI tract so that it can be absorbed into the bloodstream, where the peptide inhibitors can show their hypotensive effect. In vitro gastrointestinal digestion provides an easy process to imitate antihypertensive activity of peptides under oral administration. […] In vitro GI digestion was simulated according to the method of Zhu et al. (2008) with some modifications. One milligram of each sample was dissolved in 0.5 ml of 0.1 M KCl-HCl, and the pH was adjusted to 2.0 with 6 M HCl. Pepsin (1% enzyme/substrate, w/w) was added, and the mixture was incubated in a shaking water bath at 37° C. for 1 h, and the pH was then adjusted to pH 7.5. […] ACE inhibitory activity and α-amino groups content of the peptides before and after in vitro GI digestion were measured. […]
ACE inhibitory activity assay was carried out according to the methods of Cushman and Cheung (1971) and Wu et al. (2002) with some modifications. […] Absorbance was measured at 228 nm. The percentage of ACE inhibition was calculated as follows: […]
Content of α-amino groups was performed according to Adler-Nissen (1979). […] The mixture was left at room temperature for 30 min before an absorbance at 420 nm was monitored. […] The content of α-amino groups was expressed as leucine equivalents.

No end group written: not given here.

As for VSVVQYSR [VSVVQYSR], the “Decrease of ACE inhibitory activity after GI digestion” value is reported as about 19%.
